Reference: the supplement of paper PMC10627819

Key:
S. pneumoniae D39V [1] = assay: fitness (endpoint OD595 vs no drug) (fraction); higher = more growth
Method in brief: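 Fitness expresses the optical density reached at the stationary-phase transition as a fraction of the robust mean of no-drug control wells. It is capped at 1. Measurements were OD595 every 30 min for 14 h at 37 °C after inoculation of 384-well plates at OD595 0.01 (30 µl, or 55 µl for S. pneumoniae), minus the first reading.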

S. aureus DSM 20231 = assay: Bliss interaction score (quartile over a dose matrix) (fitness difference); higher = more antagonism (negative = synergy)
Method in brief: (§1)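 Fitness here means normalised growth, inferred for single drugs from the combination data. Growth was OD595 at entry into stationary phase, divided by the plate's robust no-drug mean and capped at 1. The Bliss score is observed minus expected fitness, with the expectation being the product, and its quartiles span technical, biological and donor/recipient replicates.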

S. pneumoniae D39V [2] = assay: as above
Method in brief: as §1

S. aureus Newman = assay: as above
Method in brief: as §1

B. subtilis 168 = assay: as above
Method in brief: as §1
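Wherever Bliss interaction score (quartile over a dose matrix) is given: first quartile when negative (synergy) and third quartile when positive (antagonism).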
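Wherever fitness (endpoint OD595 vs no drug) is given: OD595 on entry to stationary phase over no-drug wells; at most 1.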

O=C(O)c1cn(C2CC2)c2cc(N3CCNCC3)c(F)cc2c1=O [Ciprofloxacin] + CC[C@H]1OC(=O)[C@H](C)[C@@H](O[C@H]2C[C@@](C)(OC)[C@@H](O)[C@H](C)O2)[C@H](C)[C@@H](O[C@@H]2O[C@H](C)C[C@H](N(C)C)[C@H]2O)[C@](C)(OC)C[C@@H](C)C(=O)[C@H](C)[C@@H](O)[C@]1(C)O [Clarithromycin]
fitness, S. pneumoniae D39V [1], one replicate
Details	partner 0.007812 µg/mL	partner 0.01562 µg/mL	partner 0.03125 µg/mL	partner 0.0625 µg/mL	partner 0.125 µg/mL	partner 0.25 µg/mL
first compound 0.125 µg/mL	0.839	0.844	0.627	–	–	–
first compound 0.25 µg/mL	0.742	0.746	0.536	0.349	0.17	0.0141
first compound 0.5 µg/mL	0.472	0.524	0.398	–	–	–

fitness, S. pneumoniae D39V [1]
Details	partner 0.0625 µg/mL	partner 0.07 µg/mL	partner 0.125 µg/mL	partner 0.14 µg/mL	partner 0.25 µg/mL	partner 0.28 µg/mL
first compound 0.125 µg/mL	0.473	0.151	0.246	0.0833	0.0576	0.0594
first compound 0.25 µg/mL	–	0.166	–	0.0864	–	0.0284
first compound 0.5 µg/mL	0.374	0.127	0.191	0.0639	0.0761	0.0531

Details	Bliss interaction score
B. subtilis 168	0.183
S. aureus DSM 20231	0.0952
S. aureus Newman	0.0708
S. pneumoniae D39V [2]	-0.0773

C[C@H]1c2cccc(O)c2C(=O)C2=C(O)[C@]3(O)C(=O)C(C(N)=O)=C(O)[C@@H](N(C)C)[C@@H]3[C@@H](O)[C@@H]21 [Doxycycline] + CO[C@H]1/C=C/O[C@@]2(C)Oc3c(C)c(O)c4c(O)c(c(/C=N/N5CCN(C)CC5)c(O)c4c3C2=O)NC(=O)/C(C)=C\C=C\[C@H](C)[C@H](O)[C@@H](C)[C@@H](O)[C@@H](C)[C@H](OC(C)=O)[C@@H]1C [Rifampicin]
S. pneumoniae D39V [1], one replicate
Details	fitness
first compound 0.003875 µg/mL, partner 0.05 µg/mL	0.802
first compound 0.003875 µg/mL, partner 0.1 µg/mL	0.36
first compound 0.003875 µg/mL, partner 0.2 µg/mL	0.109
first compound 0.00775 µg/mL, partner 0.05 µg/mL	0.864
first compound 0.00775 µg/mL, partner 0.1 µg/mL	0.494
first compound 0.00775 µg/mL, partner 0.2 µg/mL	0.207
first compound 0.0155 µg/mL, partner 0.025 µg/mL	0.912
first compound 0.031 µg/mL, partner 0.025 µg/mL	0.927
first compound 0.062 µg/mL, partner 0.025 µg/mL	0.825

fitness, S. pneumoniae D39V [1]
Details	first compound 0.0155 µg/mL	first compound 0.031 µg/mL	first compound 0.062 µg/mL
partner 0.05 µg/mL	0.863	0.861	–
partner 0.1 µg/mL	–	–	0.307
partner 0.2 µg/mL	0.199	0.113	0.0818

Details	Bliss interaction score
B. subtilis 168	-0.253
S. aureus DSM 20231	-0.0196
S. aureus Newman	-0.0119
S. pneumoniae D39V [2]	-0.0813

C[C@@H]1O[C@@H]1P(=O)(O)O [Fosfomycin] + O=C1CN(/N=C/c2ccc([N+](=O)[O-])o2)C(=O)N1 [Nitrofurantoin]
fitness, S. pneumoniae D39V [1]
Details	partner 1.285 µg/mL	partner 2 µg/mL	partner 2.57 µg/mL	partner 4 µg/mL	partner 8 µg/mL
first compound 1.25 µg/mL	0.96	0.91	0.966	0.871	–
first compound 2.5 µg/mL	0.936	0.879	0.964	0.887	–
first compound 5 µg/mL	0.851	0.778	0.858	0.77	0.627

S. pneumoniae D39V [1], partner 5.14 µg/mL, one replicate
Details	fitness
first compound 1.25 µg/mL	0.923
first compound 2.5 µg/mL	0.898
first compound 5 µg/mL	0.866

Details	Bliss interaction score
B. subtilis 168	-0.0694
S. aureus DSM 20231	-0.0181
S. aureus Newman	0.0702
S. pneumoniae D39V [2]	0.122
